{"source": "paper PMC11811207", "about": "“Macrocycle-based PROTACs selectively degrade cyclophilin A and inhibit HIV-1 and HCV” (Nature Communications, 2025)", "key": {"CypA": {"target": "T1, CypA (Homo sapiens, UniProt P62937)", "T1 construct": "endogenous in cells; host or cells: Jurkat; also Calu-3, THP-1, MDMs, U87, Huh7, primary human CD4+ T cells", "T1 sequence (P62937 whole entry)": "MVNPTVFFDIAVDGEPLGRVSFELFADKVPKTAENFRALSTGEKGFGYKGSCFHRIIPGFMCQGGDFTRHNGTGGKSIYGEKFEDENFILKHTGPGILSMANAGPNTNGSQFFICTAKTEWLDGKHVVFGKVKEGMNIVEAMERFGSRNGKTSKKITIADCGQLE", "assay": "CypA degradation in Jurkat cells by immunoblot", "assay_type": "cell-based", "settings": "for effect on CypA levels in the absence of PROTAC: Jurkat, MLN4924 1 μM 6 h or VHLi 50 μM", "protocol": "(§1) U87 cells (5 × 10^4 cells/well, 12 well plate), Huh7 cells (1 × 10^5 cells/well, 12 well plate), Calu-3 cells (1 × 10^5 cells/well, 12 well plate), Jurkat cells (5 × 10^5 cells/mL, 24 well plate, 1 mL/well), THP-1 Dual cells (4 × 10^5 cells/mL, 24 well plate, 1 mL/well), primary MDMs (confluent well), or primary resting/activated T cells (1-2 × 10^6 cells/well, 96 well plate) were treated with 5 μM Cyp-PROTAC or DMSO for 48 h. […] MLN4924 was washed out before the addition of Cyp-PROTAC, but VHLi was kept in for the duration of the experiment. In competitor experiments, Jurkat cells were treated with 10 μM TWH106 and 1 μM Cyp-PROTAC simultaneously for 48 h. For the time course experiments, Jurkat cells were treated with 5 μM Cyp inhibitor or DMSO and cells were harvested at indicated time points. For the titration experiments, Jurkat cells were treated with 0.01 – 10 μM Cyp inhibitor or DMSO for 24 h or 48 h. Before harvesting for immunoblot, cells were washed twice in PBS.\n(§2) Cells were lysed in RIPA buffer (50 mM Tris pH 8.0, 150 mM sodium chloride, 1.0% Triton X-100, 0.5% sodium deoxycholate, 0.1% sodium dodecyl sulphate (SDS)) supplemented with protease inhibitors (cOmplete mini, EDTA-free, Roche) and phosphatase inhibitors (PhosSTOP, Roche). After 10 min incubation on ice, samples were centrifuged (16000 × g, 10 min, 4 °C), and the supernatant protein content was determined using Pierce^TM BCA Protein Assay Kit (Thermo Fisher Scientific). Samples were combined with 4x Laemmli sample buffer (200 mM Tris pH 6.8, 40% glycerol, 8% SDS, 0.4% Bromophenol Blue) and the appropriate amount of RIPA buffer to normalise protein concentrations of samples and boiled for 5 min. Proteins were separated by SDS-PAGE on 15% polyacrylamide gels and transferred onto nitrocellulose membrane using the Trans-Blot Turbo Transfer System (Bio-Rad). Blots were blocked in 5% milk in PBS-Tween for 1 h and incubated with primary antibodies in 5% milk in PBS-Tween overnight. After washing in PBS-Tween, blots were incubated with IRDye® fluorescent secondary antibodies (LI-COR) for 1 h, washed in PBS-Tween, then PBS, and visualised on an LI-COR Odyssey imaging system. Uncropped and unprocessed scans are provided in the Source Data file (main figures) and in the Figshare research data repository 10.6084/m9.figshare.c.7387381 (supplementary figures). […] Densitometry analysis was performed using ImageJ (v2.14.0), and normalised protein densities were calculated by normalisation to β-actin loading control and untreated control as stated. […]\nDC50s and Dmaxs were calculated from sigmoidal (4-parameter logistic) fits, mean (n = 2 independent experiments)."}, "CypA and CypB": {"test_system": "CypA and CypB", "assay": "CypA and CypB immunoblot in Jurkat cells treated with CsA-based PROTAC JW4-10", "assay_type": "cell-based, human", "protocol": "as §1\nas §2, with “(Bio-Rad).” for “(Bio-Rad). Blots were blocked in 5% milk in PBS-Tween for 1 h and incubated with primary antibodies in 5% milk in PBS-Tween overnight. After washing in PBS-Tween, blots were incubated with IRDye® fluorescent secondary antibodies (LI-COR) for 1 h, washed in PBS-Tween, then PBS, and visualised on an LI-COR Odyssey imaging system. Uncropped and unprocessed scans are provided in the Source Data file (main figures) and in the Figshare research data repository 10.6084/m9.figshare.c.7387381 (supplementary figures).”"}, "CypB": {"target": "T2, CypB (Homo sapiens, UniProt P23284)", "T2 construct": "endogenous in cells; host or cells: Jurkat", "T2 sequence (P23284 34-216)": "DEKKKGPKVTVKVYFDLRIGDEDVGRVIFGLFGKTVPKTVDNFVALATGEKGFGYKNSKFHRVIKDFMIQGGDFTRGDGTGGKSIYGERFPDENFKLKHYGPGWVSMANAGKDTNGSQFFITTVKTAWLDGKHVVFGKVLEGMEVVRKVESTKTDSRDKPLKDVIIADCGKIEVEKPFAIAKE", "assay": "CypB levels in Jurkat cells by immunoblot", "assay_type": "cell-based", "protocol": "as §1, with “For the time course experiments, Jurkat cells were treated with 5 μM Cyp inhibitor or DMSO and cells were harvested at indicated time points. For the titration experiments, Jurkat cells were treated with 0.01 – 10 μM Cyp inhibitor or DMSO for 24 h or 48 h. Before harvesting for immunoblot, cells were washed twice in PBS.” left out\nCells were lysed in RIPA buffer (50 mM Tris pH 8.0, 150 mM sodium chloride, 1.0% Triton X-100, 0.5% sodium deoxycholate, 0.1% sodium dodecyl sulphate (SDS)) supplemented with protease inhibitors (cOmplete mini, EDTA-free, Roche) and phosphatase inhibitors (PhosSTOP, Roche). After 10 min incubation on ice, samples were centrifuged (16000 × g, 10 min, 4 °C), and the supernatant protein content was determined using Pierce^TM BCA Protein Assay Kit (Thermo Fisher Scientific). […] Densitometry analysis was performed using ImageJ (v2.14.0), and normalised protein densities were calculated by normalisation to β-actin loading control and untreated control as stated. […]"}, "HCV JFH-1 replicon": {"test_system": "HCV JFH-1 replicon", "assay": "HCV JFH-1 subgenomic replicon (luciferase) in Huh7 cells", "assay_type": "cell-based", "settings": "Huh7, 5 μM pretreatment, washed out, not readded", "protocol": "HCV JFH-1 subgenomic replicon (SGR) (pFKI389Luc/NS3-3’_dg_JFH, previously described)[87] plasmid DNA (10 μg) was linearised by digestion with MluI, and purified linearised DNA (1 μg) was used as a template for in vitro transcription, according to the MEGAscript T7 Transcription Kit instructions (Invitrogen). RNA was resuspended in nuclease-free water at a concentration of 1 μg/μL, aliquoted, and stored at − 80 °C.\nHCV SGR RNA (5 μg or 1 μg) was electroporated into 2 × 10^6 or 2 × 10^5 Huh7 cells, respectively, using a Neon transfection system (Thermo Scientific). Single-cell suspensions were washed with PBS and resuspended in 100 μL or 10 μL of Buffer R, respectively. Resuspended cells were mixed with RNA and loaded into a Neon Tip and electroporated using the Neon Transfection system (1400 V, 20 ms, 1 pulse) and resuspended in 12 mL or 1.2 mL of media, respectively, prior to seeding in 96 well plates at a density of ~2 × 10^4 cells/well. […] Experiments were carried out in triplicate. Firefly luciferase activity was measured on a Glomax (Promega) at 4 h post electroporation (hpe) and 48 hpe using the SteadyGlo reagent (Promega) according to the manufacturer’s instructions. Data at 48 hpe were normalised to the input luciferase signal at 4 hpe."}, "THP-1 cell proteome": {"test_system": "THP-1 cell proteome", "assay": "Mass spectrometry-based proteomics in THP-1 cells", "assay_type": "cell-based, human", "settings": "THP-1, 5 μM, 72 h", "protocol": "THP-1 Dual cells were treated with 5 μM Cyp inhibitor or DMSO for 72 h. After washing with PBS, cells were lysed (5% SDS, 5 mM tris(2-carboxyethyl)phosphine (TCEP), 10 mM chloroacetamide (CAA), 100 mM Tris, 1% Triton X-100, pH 8.5) and boiled for 10 min followed by sonication in a water bath for 10 min. Protein concentration was estimated by BCA assay (Thermo Fisher Scientific). Protein digestion was automated on a KingFisher APEX robot (Thermo Fisher Scientific) in a 96-well format using a protocol from Koenig et al.[83] with minor modifications. […]\nPeptides were then dissolved in 0.5% TFA before liquid chromatography–tandem mass spectrometry (MS/MS) analysis. The mixture of tryptic peptides was analysed using an Ultimate3000 high-performance liquid chromatography system coupled online to an Eclipse mass spectrometer (Thermo Fisher Scientific). […]\nAll raw files were analysed by DIA-NN v1.8.1[84], searching against library generated automatically using Human reference proteome (UniProt) and standard settings: peptides from 7 to 30 amino acids, max number of missed cleavages of 1, oxidation (M) and protein-acetylation as only variable modifications. The data files generated by DIA-NN were analysed using Perseus version 2.0.10.0[85]. […]"}, "Jurkat cells": {"test_system": "Jurkat cells", "assay": "MTT viability assay, Jurkat cells", "assay_type": "cell-based, human", "settings": "highest concentrations tested", "protocol": "(§3) U87 cells (1 × 10^4 cells/well, 48 well plate) or Jurkat cells (5 × 10^3 cells/well, 96 well U-bottom plate) were treated with serial dilutions of Cyp inhibitors as indicated. After 48 h, the media was aspirated and replaced with fresh Cyp inhibitor dilutions and the lentiviral vector (MOI: 0.25) for a further 48 h. Experiments were carried out in triplicate.\n(§4) 3-(4,5-Dimethyl-2-thiazolyl)-2,5-diphenyl-2H-tetrazolium bromide (MTT) assay was performed on U87 cells, Jurkat cells or Huh7 cells treated with Cyp inhibitors as indicated. At the time point indicated, 10% v/v MTT (stock at 5 mg/mL in PBS) (475989, Sigma Aldrich) was added, and cells were incubated for 1 - 2 h at 37 °C. 100 μL solubilisation solution (10% SDS and 0.01 M HCl) was added, and after overnight incubation at 37 °C, absorbance was measured at 570 nm. Experiments were carried out in triplicate."}, "full-length human CypA": {"target": "full-length human CypA (Homo sapiens, UniProt P62937)", "sequence (P62937 whole entry)": "as the sequence (P62937 whole entry) above", "assay": "SPR against CypA (immobilised on CM5 chip)"}, "N-truncated CypB": {"target": "N-truncated CypB (Homo sapiens, UniProt P23284)", "sequence (P23284 34-212)": "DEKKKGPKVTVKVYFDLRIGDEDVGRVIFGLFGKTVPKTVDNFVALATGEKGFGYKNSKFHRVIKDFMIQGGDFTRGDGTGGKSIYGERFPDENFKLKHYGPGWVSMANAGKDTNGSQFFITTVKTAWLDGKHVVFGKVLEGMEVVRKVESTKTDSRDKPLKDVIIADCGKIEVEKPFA", "assay": "SPR against N-truncated CypB (immobilised on CM5 chip)"}, "HIV-1 NL4.3": {"test_system": "HIV-1 NL4.3", "assay": "Wild-type HIV-1 spreading infection in activated primary CD4+ T cells", "description": "NL4.3 stocks were produced by transfection of HEK293T cells in 150 cm^2 flasks with 9 μg pNL4.3 using 60 μL Fugene 6 (E2692, Promega) according to the manufacturer’s instructions. Supernatants were harvested at 48 and 72 h, filtered, DNase treated, purified and concentrated by ultracentrifugation through a 20% sucrose cushion and resuspended in RPMI with 10% FBS. Viral titres were determined by measuring reverse transcriptase (RT) activity in mU by SG-PERT assay[86].\nTo infect activated primary CD4+ T cells with HIV-1, cells were mixed and incubated with HIV-1 NL4.3 virus (2000 mU RT/10^6 cells) for 4 h at 37 °C. […] After exposure to the virus, T cells were washed twice in PBS by centrifugation (400 × g, 5 min) and resuspended in fresh culture medium. […]\nFor primary T cell infection experiments, cells were washed in PBS and stained with fixable Zombie R685 Live/Dead dye (423119, BioLegend, 1:500) for 5 min at 37 °C. […] Intracellular CypA was detected by incubating permeabilised cells with CypA antibody (clone 1F4-1B5, ab58144, Abcam, 1:1000) for 30 min, followed by washing (PBS) and 15 min incubation with secondary anti-mouse AlexaFluor488- or AlexaFluor647-tagged antibody. After washing with PBS (700 × g, 5 min, 4 °C) to remove excess antibodies, data were acquired on a NovoSampler Pro (Agilent) and analysed using FlowJo v10.10 (Tree Star) or NovoExpress 1.5.0 (Agilent)."}, "U87 cells": {"test_system": "U87 cells", "assay": "MTT viability assay, U87 cells", "assay_type": "cell-based", "settings": "U87, 10 μM", "protocol": "as §3, §4"}}}
{"smiles": "Cc1ncsc1-c1ccc(CNC(=O)[C@@H]2C[C@@H](O)CN2C(=O)[C@@H](NC(=O)C2(C#N)CC2)C(C)(C)C)cc1", "note": "[VH298, reference compound]", "values": [{"measurement": "effect on CypA levels in the absence of PROTAC", "setting": "CypA", "value": "did not impact CypA levels"}]}
{"smiles": "CC[C@@H]1NC(=O)[C@H]([C@H](O)[C@H](C)C/C=C/CCCCC(=O)N[C@H](C(=O)N2C[C@H](O)C[C@H]2C(=O)N[C@@H](C)c2ccc(-c3scnc3C)cc2)C(C)(C)C)N(C)C(=O)[C@H](C(C)C)N(C)C(=O)[C@H](CC(C)C)N(C)C(=O)[C@H](CC(C)C)N(C)C(=O)[C@@H](C)NC(=O)[C@H](C)NC(=O)[C@H](CC(C)C)N(C)C(=O)[C@H](C(C)C)NC(=O)[C@H](CC(C)C)N(C)C(=O)CN(C)C1=O", "note": "[JW4-10]", "values": [{"measurement": "degradation of CypA and CypB", "setting": "CypA and CypB; 5 μM, 48 h", "value": "degraded both CypA and CypB"}, {"measurement": "rescue by excess VHL inhibitor VH298 pretreatment", "setting": "CypA and CypB; 50 µM VHLi 2 h before 5 µM PROTAC", "value": "rescued CypA, but not CypB"}, {"measurement": "rescue by MLN4924 pretreatment", "setting": "CypA and CypB; MLN4924 1 μM 6 h before 5 μM PROTAC", "value": "fully rescued CypA, but not CypB"}]}
{"smiles": "NS(=O)(=O)OC[C@@H]1C[C@@H](n2ccc3c(N[C@H]4CCc5ccccc54)ncnc32)C[C@@H]1O", "note": "[MLN4924, reference compound]", "values": [{"measurement": "effect on CypA levels in the absence of PROTAC", "setting": "CypA", "value": "no impact on CypA levels"}]}
{"smiles": "C[C@@H]1NC(=O)[C@H](Cc2ccc([N+](=O)[O-])cc2)NC(=O)C/C=C/c2ccc3ccc(nc3c2)[C@@H](C)OC(=O)[C@@H]2CCCN(N2)C1=O", "note": "[TWH106]", "values": [{"measurement": "effect on CypB levels, time course", "setting": "CypB; 5 μM, 6 days", "value": "most effectively reduced"}, {"measurement": "effect on CypB levels, dose response", "setting": "CypB; 0.01–10 μM, 48 h", "value": "dose-dependent decrease in CypB"}, {"measurement": "antiviral activity against HCV replicon, pretreatment only", "setting": "HCV JFH-1 replicon", "value": "abrogated"}, {"measurement": "effect on CypA in proteomics", "setting": "THP-1 cell proteome", "value": "did not affect CypA levels"}, {"measurement": "cell viability (MTT)", "setting": "Jurkat cells", "value": "toxic"}, {"measurement": "Kd", "setting": "full-length human CypA; CypA KD, SPR equilibrium analysis, full-length CypA, mean of two independent experiments ± SD", "value": "53 ± 5", "unit": "nM"}, {"measurement": "Kd", "setting": "full-length human CypA; CypA dissociation constant (KD) from sigmoid fit, representative experiment, one of two independent experiments, Supplementary Fig. 2", "value": 48, "unit": "nM"}, {"measurement": "Kd", "setting": "N-truncated CypB; CypB KD, SPR equilibrium analysis, N-truncated CypB, mean of two independent experiments ± SD", "value": "139 ± 24", "unit": "nM"}, {"measurement": "Kd", "setting": "N-truncated CypB; CypB dissociation constant (KD) from sigmoid fit, representative experiment, one of two independent experiments, Supplementary Fig. 3", "value": 163, "unit": "nM"}, {"measurement": "lower affinity for N-truncated CypB compared to CypA", "setting": "N-truncated CypB; SPR KD CypB vs CypA", "value": "2-3 fold"}, {"measurement": "antiviral activity, pretreatment only", "setting": "HIV-1 NL4.3; 5 μM 48 h pretreatment, not readded after infection", "value": "abrogated"}, {"measurement": "antiviral activity (Gag+ cells, viral particles in supernatant)", "setting": "HIV-1 NL4.3; continuous treatment 1 μM or 5 μM", "value": "antiviral"}, {"measurement": "effect on CypA protein levels, time course", "setting": "CypA; Jurkat cells, 5 μM, up to 6 days", "value": "did not reduce CypA levels except a small decrease after 6 days"}, {"measurement": "effect on CypA levels, dose response", "setting": "CypA; Jurkat cells, 0.01 – 10 μM, 24 h and 48 h", "value": "mild CypA loss only at 10 µM and after 24 hours"}, {"measurement": "cell viability (MTT)", "setting": "U87 cells", "value": "slightly toxic"}]}
